Data taken from ChEMBL document CHEMBL2385059, “3-Hydroxyquinolin-2(1H)-ones As Inhibitors of Influenza A Endonuclease” (ACS Med Chem Lett, 2013).
pIC50: −log10 of the molar value.

How the values were obtained:
[1] = Inhibition of H1N1 Influenza A endonuclease after 1 hr by fluorescence assay; set-up: species or system Influenza A virus
MDCK = assay: Cytotoxicity against dog MDCK cells after 4 days by MTT assay; assay type: cell-based; conditions: Canis lupus familiaris, 96 h
HEK293 = assay: Cytotoxicity against HEK293 cells after 4 days by MTT assay; assay type: cell-based; conditions: Homo sapiens, HEK293, 96 h

Row | SMILES | pIC50 [1] | pIC50 (MDCK) | pIC50 (HEK293)
1 | Oc1nc2ccccc2c(Br)c1O | 4.28 |  | 
2 | O=c1[nH]c2cc(-c3ccc(F)cc3)ccc2c(Br)c1O | 5.96 |  | 
3 | O=c1[nH]c2cc(-c3ccc(F)cc3)ccc2c(-c2ccccc2)c1O | 5.70 |  | 
4 | Cc1c(O)c(=O)[nH]c2cc(-c3ccc(F)cc3)ccc12 | 4.89 |  | 
5 | O=c1[nH]c2cccc(Br)c2cc1O | 4.92 | < 5.00 | < 5.00
6 | O=c1[nH]c2ccc(Br)cc2cc1O | 5.13 | < 5.00 | < 5.00
7 | O=c1[nH]c2cc(Br)ccc2cc1O | 5.12 | < 5.00 | < 5.00
8 | O=c1[nH]c2c(Br)cccc2cc1O | 4.96 | < 5.00 | < 5.00
9 | O=c1[nH]c2cccc(-c3ccc(F)cc3)c2cc1O | 5.48 |  | 
10 | O=c1[nH]c2ccc(-c3ccc(F)cc3)cc2cc1O | 6.30 |  | 
11 | O=c1[nH]c2cc(-c3ccc(F)cc3)ccc2cc1O | 6.30 |  | 
12 | O=c1[nH]c2c(-c3ccc(F)cc3)cccc2cc1O | 5.33 |  | 
13 | O=c1[nH]c2ccccc2c(-c2ccc(F)cc2)c1O | 4.96 |  | 
14 | O=c1[nH]c2ccccc2c(-c2ccccc2)c1O | < 4.70 |  | 
15 | Cc1c(O)c(=O)[nH]c2ccccc12 | < 4.00 |  | 
